17 molecules from patent US20210198256A1, “COMPOUNDS FOR THE DEGRADATION OF BRD9 OR MTH1” (C4 Therapeutics, Inc., priority 2018, published 2021) can be followed below.

The experiment concerns SMARTCAR-MTH1-wt-HiBiT (Jurkat.7 cells). Put plainly: HiBit Lytic Assay (HiBit DC50, MTH1 degraders of Table 2). Format: cell-based, human. Conditions: Jurkat.7 SMARTCAR-MTH1-wt-HiBiT cells, compound treatment time 4 hr, 11-point half log dose response. Summed up:
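Jurkat.7 cells expressing SMARTCAR-MTH1-wt-HiBiT were treated at 37° C with 11-point half-log dilutions (top final 1000 nM or 833 nM, duplicates, 0.1% DMSO). Remaining HiBiT-tagged protein was read by Nano-Glo HiBiT lytic luminescence, normalized to media-only and DMSO controls.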
For orientation: The HiBiT peptide binds its large partner to form an active luciferase.
A word on the DC50: it is the midpoint of the concentration-degradation curve. The low end stands for degradation at low concentration, the high end for degradation only at high concentration. Turning to `O=C1CCC(N2C(=O)c3cccc(NCC(O)C(=O)NCCCNC(=O)c4ccc(-c5cc6c(Nc7ccccc7)c(C(=O)NC7CC7)cnc6cc5F)cc4F)c3C2=O)C(=O)N1` (centres unmarked) [Compound 440, N-cyclopropyl-6-(4-((3-(3-((2-(2,6-dioxopiperidin-3-yl)-1,3-dioxoisoindolin-4-yl)amino)-2-hydroxypropanamido)propyl)carbamoyl)-3-fluorophenyl)-7-fluoro-4-(phenylamino)quinoline-3-carboxamide], the DC50 was less than 100 nM.

`CNC(=O)c1cnc2ccc(NCCCCCCCCCCNC(=O)CNc3cccc4c3CN(C3CCC(=O)NC3=O)C4=O)cc2c1Nc1ccccc1` (centres unmarked) [Compound 441, 6-((10-(2-((2-(2,6-dioxopiperidin-3-yl)-1-oxoisoindolin-4-yl)amino)acetamido)decyl)amino)-N-methyl-4-(phenylamino)quinoline-3-carboxamide] displayed a DC50 of less than 100 nM.

The molecule `CNC(=O)c1cnc2ccc(NCCCCCCCCCCNC(=O)C(C)Oc3cccc4c3C(=O)N(C3CCC(=O)NC3=O)C4=O)cc2c1Nc1ccccc1` (centres unmarked) [Compound 442, 6-((10-(2-((2-(2,6-dioxopiperidin-3-yl)-1,3-dioxoisoindolin-4-yl)oxy)propanamido)decyl)amino)-N-methyl-4-(phenylamino)quinoline-3-carboxamide] had a DC50 of less than 100 nM.

For `CNC(=O)c1cnc2ccc(NCCCCCCCCCCNC(=O)[C@@H](C)Nc3cccc4c3C(=O)N(C3CCC(=O)NC3=O)C4=O)cc2c1Nc1ccccc1` (stereo partly drawn) [Compound 443, 6-((10-((2R)-2-((2-(2,6-dioxopiperidin-3-yl)-1,3-dioxoisoindolin-4-yl)amino)propanamido)decyl)amino)-N-methyl-4-(phenylamino)quinoline-3-carboxamide], the half-maximal degradation concentration (DC50) is less than 100 nM.

Regarding `CNC(=O)c1cnc2ccc(NCCCCCCCCCCNC(=O)C(C)Nc3cccc4c3C(=O)N(C3CCC(=O)NC3=O)C4=O)cc2c1Nc1ccccc1` (centres unmarked) [Compound 444, 6-((10-(2-((2-(2,6-dioxopiperidin-3-yl)-1,3-dioxoisoindolin-4-yl)amino)propanamido)decyl)amino)-N-methyl-4-(phenylamino)quinoline-3-carboxamide], the DC50 is less than 100 nM.

As to `CNC(=O)c1cnc2ccc(NCCCCCCCCCCNC(=O)[C@H](C)Nc3cccc4c3C(=O)N(C3CCC(=O)NC3=O)C4=O)cc2c1Nc1ccccc1` (stereo partly drawn) [Compound 445, 6-((10-((2S)-2((2-(2,6-dioxopiperidin-3-yl)-1,3-dioxoisoindolin-4-yl)amino)propanamido)decyl)amino)-N-methyl-4-(phenylamino)quinoline-3-carboxamide], the DC50 was less than 100 nM.

In turn, `CNC(=O)c1cnc2ccc(C(=O)NCCCCCCCCCNC(=O)COc3cccc4c3C(=O)N(C3CCC(=O)NC3=O)C4=O)cc2c1Nc1ccccc1` (centres unmarked) [Compound 446, N6-(9-(2-((2-(2,6-dioxopiperidin-3-yl)-1,3-dioxoisoindolin-4-yl)oxy)acetamido)nonyl)-N3-methyl-4-(phenylamino)quinoline-3,6-dicarboxamide] returned a DC50 of less than 100 nM.

`CNC(=O)c1cnc2ccc(NCCCCCCCCCCNC(=O)CN(C)c3cccc4c3C(=O)N(C3CCC(=O)NC3=O)C4=O)cc2c1Nc1ccccc1` (centres unmarked) [Compound 447, 6-((10-(2-((2-(2,6-dioxopiperidin-3-yl)-1,3-dioxoisoindolin-4-yl)(methyl)amino)acetamido)decyl)amino)-N-methyl-4-(phenylamino)quinoline-3-carboxamide]: the half-maximal degradation concentration (DC50) is less than 100 nM.

With `CNC(=O)c1cnc2ccc(NCCCCCCCCCCNC(=O)COc3cccc4c3C(=O)N(C3CCC(=O)NC3=O)C4=O)cc2c1NCc1ccccc1` (centres unmarked) [Compound 448, 4-(benzylamino)-6-((10-(2-((2-(2,6-dioxopiperidin-3-yl)-1,3-dioxoisoindolin-4-yl)oxy)acetamido)decyl)amino)-N-methylquinoline-3-carboxamide], the DC50 is less than 100 nM.

For `CNC(=O)c1cnc2ccc(NCCCCCCCCCCNC(=O)COc3cccc4c3C(=O)N(C3CCC(=O)NC3=O)C4=O)cc2c1Nc1ccccc1` (centres unmarked) [Compound 449, 6-((10-(2-((2-(2,6-dioxopiperidin-3-yl)-1,3-dioxoisoindolin-4-yl)oxy)acetamido)decyl)amino)-N-methyl-4-(phenylamino)quinoline-3-carboxamide], the DC50 was less than 100 nM.

For the molecule `CNC(=O)c1cnc2ccc(C(=O)NCCCCCCCCCCNC(=O)COc3cccc4c3C(=O)N(C3CCC(=O)NC3=O)C4=O)cc2c1Nc1ccccc1` (centres unmarked) [Compound 450, N6-(10-(2-((2-(2,6-dioxopiperidin-3-yl)-1,3-dioxoisoindolin-4-yl)oxy)acetamido)decyl)-N3-methyl-4-(phenylamino)quinoline-3,6-dicarboxamide], the DC50 was less than 100 nM.

As to `CNC(=O)c1cnc2ccc(NCCCCCCCCCCNC(=O)CNc3cccc4c3C(=O)N(C3CCC(=O)NC3=O)C4=O)cc2c1Nc1ccccc1` (centres unmarked) [Compound 451, 6-((10-(2-((2-(2,6-dioxopiperidin-3-yl)-1,3-dioxoisoindolin-4-yl)amino)acetamido)decyl)amino)-N-methyl-4-(phenylamino)quinoline-3-carboxamide], the DC50 was less than 100 nM.

On to `CCNC(=O)c1cnc2ccc(NCCCCCCCCCCNC(=O)COc3cccc4c3C(=O)N(C3CCC(=O)NC3=O)C4=O)cc2c1Nc1ccccc1` (centres unmarked) [Compound 452, 6-((10-(2-((2-(2,6-dioxopiperidin-3-yl)-1,3-dioxoisoindolin-4-yl)oxy)acetamido)decyl)amino)-N-ethyl-4-(phenylamino)quinoline-3-carboxamide], for which the DC50 is less than 100 nM.

In the case of `CNC(=O)c1cnc2ccc(C(=O)NCCCCCCCCNC(=O)COc3cccc4c3C(=O)N(C3CCC(=O)NC3=O)C4=O)cc2c1Nc1ccccc1` (centres unmarked) [Compound 453, N6-(8-(2-((2-(2,6-dioxopiperidin-3-yl)-1,3-dioxoisoindolin-4-yl)oxy)acetamido)octyl)-N3-methyl-4-(phenylamino)quinoline-3,6-dicarboxamide], the DC50 is less than 100 nM.

For `CNC(=O)c1cnc2cc(OC)c(NCCCCCCCCCCNC(=O)COc3cccc4c3C(=O)N(C3CCC(=O)NC3=O)C4=O)cc2c1Nc1ccccc1` (centres unmarked) [Compound 454, 6-((10-(2-((2-(2,6-dioxopiperidin-3-yl)-1,3-dioxoisoindolin-4-yl)oxy)acetamido)decyl)amino)-7-methoxy-N-methyl-4-(phenylamino)quinoline-3-carboxamide], the 50% degradation concentration (DC50) was less than 100 nM.

`CNC(=O)c1cnc2ccc(C(=O)NCCCCCCCCCCCCNC(=O)COc3cccc4c3C(=O)N(C3CCC(=O)NC3=O)C4=O)cc2c1Nc1ccccc1` (centres unmarked) [Compound 455, N6-(12-(2-((2-(2,6-dioxopiperidin-3-yl)-1,3-dioxoisoindolin-4-yl)oxy)acetamido)dodecyl)-N3-methyl-4-(phenylamino)quinoline-3,6-dicarboxamide] registered a DC50 of less than 100 nM.

Regarding `CNC(=O)c1cnc2ccc(CNC(=O)CCCCCCCCNC(=O)COc3cccc4c3C(=O)N(C3CCC(=O)NC3=O)C4=O)cc2c1Nc1ccccc1` (centres unmarked) [Compound 456, 6-((9-(2-((2-(2,6-dioxopiperidin-3-yl)-1,3-dioxoisoindolin-4-yl)oxy)acetamido)nonanamido)methyl)-N-methyl-4-(phenylamino)quinoline-3-carboxamide], the DC50 is less than 100 nM.
